Measurements taken from patent US20160339094A1, “BACTERIAL INFLUENCE OF HOST FEEDING AND EMOTION VIA CLPB PROTEIN MIMICRY OF A-MSH” (priority 2013, published 2016).

Assays:
[1] = system: C57B16 mice; experiment: Locomotor activity and anxiety tests (open field, elevated O-maze) in immunized mice; assay type: in vivo
Method: After the feeding study, mice were placed in individual mouse holding cages with food and water available ad libitum and were analyzed for locomotor activity and anxiety in O-maze tests performed during two consecutive days. Two hours after the O-maze test, mice were killed by decapitation in a guillotine and trunk blood was collected into EDTA-containing tubes. Plasma was separated by centrifugation at 3,500 r.p.m. ([…]) for 10 min at 4° C. and stored at −80° C. before assay.
After feeding study in the BioDAQ cages, mice were analyzed for locomotor activity using a Versamax Animal Activity Monitor (AccuScan Instruments, Inc., Columbus, Ohio). Next day after the locomotor activity test all mice were tested for their anxiety in an elevated-O-maze. The elevated-O-maze is a variation of more commonly used elevated-plus-maze pharmacologically validated for anxiety testing in rodents (Crawley, J. N. and Bailey, K. R., Methods of behavior analysis in neuroscience, 77-101 (CRC Press, 2009)). The advantage of the O-maze is that it lacks the ambiguous central square of the traditional plus-maze. The O-maze (Med Associate, Inc., St. Albans, Vt.) consisted of a circular infrared platform (outer diameter 120 cm) elevated 80 cm above the floor, featuring two open and two closed segments made of grey plastic. The closed segments were enclosed by walls extending 20 cm above the surface of the maze and covered with a black infrared Plexiglas lid. Each test started by placing the mouse into one of the two closed segments. The test lasted 5 min and was recorded using a video-camera placed above the O-maze and the EthoVision video tracking software (Noldus IT, Wageningen, The Netherlands). Measurements of distance and time spent in the open and closed segments were analyzed. Between each mouse tests, the O-maze was cleaned with a 30% alcohol.

[2] = system: C57B16 mice; experiment: ClpB immunization in mice: plasma ClpB-, α-MSH- and ACTH-reactive autoantibody ELISA; assay type: in vivo
Method: Two month-old male C57B16 mice (Janvier Labs L'Arbresle, France) were acclimated to the animal facility for with 12 h light-dark cycle, lights on at 7:00 a.m. and were kept in standard mouse holding cages (n=8) in each. […] During acclimatization mice were distributed between four cages to obtain the similar mean body weight per mouse per cage. After one week of acclimatization, mice from each cage were assigned to one of four study group and received following treatments: i) Group 1, ClpB immunization (n=8): ClpB protein (Delphi Genetics) 50 μg/mouse in 200 μl of 1:1 vol. of PBS with Complete Freund's Adjuvant (CFA, Sigma), intraperitoneally (I.P.); ii) Group 2, adjuvant injection controls (n=8): 200 μl of CFA in PBS (1:1 vol., I.P.); iii) Group 3, PBS injection controls (n=8): 200 μl of PBS (I.P.) and iiii) Group 4, Intact controls (n=8): received no injections, and then all mice were returned to their holding cages. Fifteen days later, mice were given a boost immunization and the following treatments: i) Group 1 (n=8), ClpB protein (Delphi Genetics) 50 μg/mouse in 200 μl of 1:1 vol. of PBS with Incomplete Freund's Adjuvant (IFA, Sigma) I.P.; ii) Group 2 (n=8): 200 ═l of IFA in PBS (1:1 vol., I.P.); iii) Group 3, (n=8): 200 ═l of PBS (I.P.) and iiii) Group 4, (n=8): received no injections.
Two hours after the O-maze test, mice were killed by decapitation in a guillotine and trunk blood was collected into EDTA-containing tubes. Plasma was separated by centrifugation at 3,500 r.p.m. (1.4 g) for 10 min at 4° C. and stored at −80° C. before assay.
Plates were washed (5 min×3) in phosphate-buffered saline (PBS) with 0.05% Tween 200, pH 7.4, and then incubated overnight at 4° C. with 100 μl of mouse or rat plasma diluted 1:200 in PBS to determine free autoAbs levels or diluted 1:200 in dissociative 3 M NaCl, 1.5 M glycine buffer, pH 8.9 to determine total autoAbs levels. The plates were washed (3×) and incubated with 100 μl of alkaline phosphatase (AP)-conjugated goat anti-rat IgG (1:2000), anti-rat IgM (1:1000), anti-mouse IgG (1:2000), or anti-mouse IgM (1:1000) all from Jackson ImmunoResearch Laboratories, Inc. (West Grove, Pa.). Following washing (3×), 100 μl of p-nitrophenyl phosphate solution (Sigma) was added as alkaline phosphatase substrate. After 40 min of incubation at room temperature, the reaction was stopped by adding 3N NaOH. The OD was determined at 405 nm using a microplate reader Metertech 960 (Metertech Inc., Taipei, Taiwan). Blank OD values resulting from the reading of plates without addition of plasma samples were subtracted from the sample OD values. Each determination was done in duplicate. The variation between duplicate values was less than 5%.

[3] = system: C57B16 mice; experiment: ClpB immunization in mice: body weight, food intake and feeding pattern (BioDAQ cages); assay type: in vivo
Method: Animal care and experimentation were in accordance with guidelines established by the National Institutes of Health, USA and complied with both French and European Community regulations (Official Journal of the European Community L 358, 18 Dec. 1986). Two month-old male C57B16 mice (Janvier Labs L'Arbresle, France) were acclimated to the animal facility for with 12 h light-dark cycle, lights on at 7:00 a.m. and were kept in standard mouse holding cages (n=8) in each. Mice were fed ad libitum with standard pelleted rodent chow (RM1 diet, SDS, UK) with drinking water always available and were manipulated daily by gentle holding and measuring body weight. During acclimatization mice were distributed between four cages to obtain the similar mean body weight per mouse per cage. After one week of acclimatization, mice from each cage were assigned to one of four study group and received following treatments: i) Group 1, ClpB immunization (n=8): ClpB protein (Delphi Genetics) 50 μg/mouse in 200 μl of 1:1 vol. of PBS with Complete Freund's Adjuvant (CFA, Sigma), intraperitoneally (I.P.); ii) Group 2, adjuvant injection controls (n=8): 200 μl of CFA in PBS (1:1 vol., I.P.); iii) Group 3, PBS injection controls (n=8): 200 μl of PBS (I.P.) and iiii) Group 4, Intact controls (n=8): received no injections, and then all mice were returned to their holding cages. Fifteen days later, mice were given a boost immunization and the following treatments: i) Group 1 (n=8), ClpB protein (Delphi Genetics) 50 μg/mouse in 200 μl of 1:1 vol. of PBS with Incomplete Freund's Adjuvant (IFA, Sigma) I.P.; ii) Group 2 (n=8): 200 ═l of IFA in PBS (1:1 vol., I.P.); iii) Group 3, (n=8): 200 ═l of PBS (I.P.) and iiii) Group 4, (n=8): received no injections.
Next day after the boost, mice were placed individually in the BioDAQ mouse cages (Research Diets, Inc., New Brunswick, N.J.) each equipped with an automatic feeding monitor. Food (SERLAB, Montataire France) and drinking water were available ad libitum and body weight was measured daily. After three days of acclimation to the BioDAQ cages, mice received the following treatments: Groups 1, 2 and 3 (each n=8) i.e. mice which have been immunized with ClpB; injected with adjuvants and with PBS, respectively, […] PBS (I.P.) at 10 a.m. The control mice (n=8) received PBS only (I.P.). Feeding data was continuously monitored and analysed using the BioDAQ data viewer 2.3.07 (Research Diets). For the meal pattern analysis, the inter-meal interval was set at 300 sec.

[4] = target: ClpB (Escherichia coli, UniProt P63284); details: plasma extracted IgG of ClpB immunized mice vs other groups; SPR
Method: (§1) Extraction of plasma globulins was done by plasma acidification and separation on C-18 SEP column (Phoenix Pharmaceuticals, Burlingame, Calif.) according to the manufacturer instructions. In detail, 500 μl of mouse or rat plasma was mixed with 500 μl of buffer A (1% trifluoroacetic acid TFA in water). The column was activated in 1 ml of buffer B (60% acetonitrile in 1% TFA) by 3 min centrifugation with 700 rpm and rinsed 3 times with 3 ml of buffer A. Diluted plasma (1:1 in buffer A) was added to the column and the effluent (1 ml) was saved (frozen at −20° C.) for further purification of IgG. Total IgG were purified from the effluents of rat plasma samples using the Melon Gel Kit (Thermo Fisher Scientific, Rockford, Ill.) according to the manufacturer instructions. In brief, plasma effluents diluted 1:4 in kit's purification buffer was added on washed melon gel deposited in a column. Column was spinned 1 min at 6,000 r.p.m. and the IgG containing effluent was saved and frozen at −20° C. before lyophilization. Lyophilized IgG were reconstituted in the HBS-EP buffer (GE Healthcare, Piscataway, N.J.).
(§2) For the affinity kinetic analysis, a multi-cycle method was run with five serial dilutions of each IgG sample: 3360, 1680, 840, 420 and 210 (nmol) including a duplicate of 840 nmol and a blank sample (HBS-EP buffer only).

[5] = target: α-MSH (Homo sapiens, UniProt P01189); details: IgG of ClpB immunized mice vs controls; SPR
Method: as §1, §2

[6] = system: polyclonal rabbit anti-α-MSH antisera
Method: Following 2D-PAGE, E. coli cytoplasmic proteins were transferred onto Hybond-ECL PVDF membrane (GE Healthcare) by using a dry transfer method (Trans Blot Cell, Biorad, USA) and a constant current of 0.8 mA/cm^2 of the membrane size for 2 h. After transfer, membranes were blocked with 5% (wt:v) milk (Regilait, France) in phosphate buffered saline (PBS; 10 mmol/L […], pH 8; 150 mmol/L NaCl) plus 0.05% (v:v) Tween 20.
The recombinant ClpB protein was customly produced by Delphi Genetics SA, (Gosselies, Belgium) in bacterial cultures by the ClpB cDNA synthesis and cloning into an expression vector.

[7] = day 22, single injection of α-MSH 100 μg/kg body weight, I.P., non-immunized vs ClpB-immunized vs controls

Sequence of ClpB (P63284 whole entry): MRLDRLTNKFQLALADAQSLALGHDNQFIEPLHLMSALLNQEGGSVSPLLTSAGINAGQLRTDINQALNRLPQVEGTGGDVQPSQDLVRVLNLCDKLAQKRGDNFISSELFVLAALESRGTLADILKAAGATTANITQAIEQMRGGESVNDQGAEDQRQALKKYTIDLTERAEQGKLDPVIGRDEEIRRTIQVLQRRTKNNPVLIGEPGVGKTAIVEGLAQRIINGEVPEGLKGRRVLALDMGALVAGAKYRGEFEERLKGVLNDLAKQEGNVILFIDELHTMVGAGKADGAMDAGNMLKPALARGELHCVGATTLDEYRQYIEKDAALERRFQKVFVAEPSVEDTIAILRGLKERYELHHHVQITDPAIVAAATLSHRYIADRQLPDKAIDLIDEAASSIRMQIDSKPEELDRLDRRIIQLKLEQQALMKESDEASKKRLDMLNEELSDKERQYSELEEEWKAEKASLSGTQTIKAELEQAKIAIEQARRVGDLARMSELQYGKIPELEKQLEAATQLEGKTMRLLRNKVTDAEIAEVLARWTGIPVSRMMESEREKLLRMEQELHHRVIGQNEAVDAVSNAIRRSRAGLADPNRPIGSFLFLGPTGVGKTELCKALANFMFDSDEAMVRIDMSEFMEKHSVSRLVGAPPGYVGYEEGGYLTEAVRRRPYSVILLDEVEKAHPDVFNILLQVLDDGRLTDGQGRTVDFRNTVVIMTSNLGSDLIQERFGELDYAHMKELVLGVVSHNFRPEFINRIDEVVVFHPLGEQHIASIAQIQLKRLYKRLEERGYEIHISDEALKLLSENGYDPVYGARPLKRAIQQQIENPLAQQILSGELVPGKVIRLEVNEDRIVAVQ

For “ClpB: recombinant 857 amino acid chaperone protein ClpB of E. coli K12 (SEQ ID NO: 1), injected I.P. with Freund's adjuvant for immunization”, which “parameters in the O-maze open arms” value ([1]; ClpB group) is on record?
The value was “did not significantly change”.

What about the “time spent in the closed arms of the O-maze” value ([1]; ClpB-immunized mice vs all other groups) of the same substance?
Its value is “less time”.

And the “distance moved in the closed arms of the O-maze” value ([1]; ClpB-immunized mice vs controls)?
Its value is “shorter distance”.

What about the “time spent in the open vs. border areas” value ([1]; open field, among the groups) of the same substance?
Its value is “did not significantly differ”.

What about the total locomotor activity ([1]; open field, among the groups) of the same substance?
The total locomotor activity was “did not significantly differ”.

And the “plasma levels of α-MSH-reactive IgG” value ([2]; ClpB immunized mice)?
Its value is “Increased plasma levels”.

And the “plasma levels of ClpB IgG” value ([2]; ClpB immunized mice vs other groups (adjuvant, PBS, controls))?
The value was “higher plasma levels”.

What about the “plasma ACTH-reactive IgG” value ([2]; among the groups) of the same substance?
Its value is “No significant differences”.

And the “plasma levels of α-MSH IgM autoAbs” value ([2]; between the groups)?
The value was “did not significantly differ”.

And the meal number ([3]; BioDAQ)?
The meal number was “did not change”.

What about the meal size ([3]; BioDAQ, last 10 days) of the same substance?
Its meal size is “increased meal size”.

What about the “higher mean daily food intake as compared to other groups” value ([3]; BioDAQ, last 10 days of the experiment) of the same substance?
The value was 13%.

What about the “body weight for few days after injections” value ([3]; ClpB and CFA, I.P., expected inflammatory response to immunization) of the same substance?
Its value is “lower body weight”.

And the “higher body weight vs. controls at the end of the experiment” value ([3]; ClpB immunized mice, 32 days study)?
Its value is 5%.

What about the “24 h food intake following α-MSH injection” value [3, 7] of the same substance?
Its value is “did not differ from controls”.

What about the “body weight 24 h following α-MSH injection” value [3, 7] of the same substance?
Its value is “did not differ from controls”.

What about the “affinity of anti-ClpB IgG for ClpB” value [4] of the same substance?
Its value is “lower affinities”.

What about the “affinity of IgG for α-MSH” value [5] of the same substance?
Its value is “lower affinities for α-MSH”.

What about the “Western blot detection by anti-α-MSH antiserum after trypsin digestion” value ([6]; ClpB digested by trypsin) of the same substance?
The value was “No band was detected”.

And the “Western blot detection by anti-α-MSH antiserum” value ([6]; intact recombinant ClpB)?
The value was “single 96 kDa band”.
